Measured values published in ChEMBL document CHEMBL5678818, “Discovery of potent SOS1 inhibitors that block RAS activation via disruption of the RAS-SOS1 interaction” (Proc Natl Acad Sci U S A, 2019).

Key:
[1] = system: Tyrosine-protein kinase ABL1 (Homo sapiens), P00519 [T315I]; assay: Inhibition of phosphorylated ABL1 T315I mutant (unknown origin) assessed as residual activity at 1000 nM by KINOMEscan analysis relative to control
[2] = biological target: Tyrosine-protein kinase ABL2 (Homo sapiens) (UniProt P42684); assay: Inhibition of ABL2 (unknown origin) assessed as residual activity at 1000 nM by KINOMEscan analysis relative to control
Sequence of Tyrosine-protein kinase ABL2 (Homo sapiens) (P42684 whole entry): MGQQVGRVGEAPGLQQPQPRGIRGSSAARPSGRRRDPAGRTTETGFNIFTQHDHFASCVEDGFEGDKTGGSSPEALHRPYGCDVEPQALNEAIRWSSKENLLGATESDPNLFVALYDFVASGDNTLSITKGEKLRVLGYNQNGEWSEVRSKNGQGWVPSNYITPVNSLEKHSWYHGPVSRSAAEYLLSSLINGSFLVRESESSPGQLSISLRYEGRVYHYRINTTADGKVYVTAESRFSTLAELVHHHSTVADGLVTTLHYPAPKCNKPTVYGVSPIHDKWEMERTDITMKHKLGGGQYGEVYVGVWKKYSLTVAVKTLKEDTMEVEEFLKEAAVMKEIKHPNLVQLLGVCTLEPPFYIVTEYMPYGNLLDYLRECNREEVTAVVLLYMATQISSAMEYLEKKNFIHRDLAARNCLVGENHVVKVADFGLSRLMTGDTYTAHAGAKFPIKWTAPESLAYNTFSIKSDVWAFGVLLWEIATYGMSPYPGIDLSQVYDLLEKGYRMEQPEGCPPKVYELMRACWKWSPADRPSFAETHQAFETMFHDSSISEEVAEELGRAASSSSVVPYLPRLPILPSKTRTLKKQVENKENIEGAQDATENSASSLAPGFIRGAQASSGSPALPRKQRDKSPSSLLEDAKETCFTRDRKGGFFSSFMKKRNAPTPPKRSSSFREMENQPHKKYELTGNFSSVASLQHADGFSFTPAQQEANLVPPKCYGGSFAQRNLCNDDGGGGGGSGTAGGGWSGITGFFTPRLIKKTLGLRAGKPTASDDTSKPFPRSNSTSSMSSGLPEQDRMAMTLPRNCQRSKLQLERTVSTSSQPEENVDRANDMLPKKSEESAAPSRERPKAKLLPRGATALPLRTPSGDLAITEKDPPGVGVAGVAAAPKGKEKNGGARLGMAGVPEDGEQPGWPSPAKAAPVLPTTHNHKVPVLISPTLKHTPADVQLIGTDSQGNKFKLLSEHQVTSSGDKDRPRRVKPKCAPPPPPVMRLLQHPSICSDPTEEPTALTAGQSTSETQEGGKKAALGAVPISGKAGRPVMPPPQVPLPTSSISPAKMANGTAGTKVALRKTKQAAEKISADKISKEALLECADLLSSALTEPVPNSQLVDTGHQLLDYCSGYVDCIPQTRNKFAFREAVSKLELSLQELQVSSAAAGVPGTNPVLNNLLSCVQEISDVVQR

[3] = biological target: Activin receptor type-2A (Homo sapiens) (UniProt P27037); assay: Inhibition of ACVR2A (unknown origin) assessed as residual activity at 1000 nM by KINOMEscan analysis relative to control
Sequence of Activin receptor type-2A (Homo sapiens) (P27037 whole entry): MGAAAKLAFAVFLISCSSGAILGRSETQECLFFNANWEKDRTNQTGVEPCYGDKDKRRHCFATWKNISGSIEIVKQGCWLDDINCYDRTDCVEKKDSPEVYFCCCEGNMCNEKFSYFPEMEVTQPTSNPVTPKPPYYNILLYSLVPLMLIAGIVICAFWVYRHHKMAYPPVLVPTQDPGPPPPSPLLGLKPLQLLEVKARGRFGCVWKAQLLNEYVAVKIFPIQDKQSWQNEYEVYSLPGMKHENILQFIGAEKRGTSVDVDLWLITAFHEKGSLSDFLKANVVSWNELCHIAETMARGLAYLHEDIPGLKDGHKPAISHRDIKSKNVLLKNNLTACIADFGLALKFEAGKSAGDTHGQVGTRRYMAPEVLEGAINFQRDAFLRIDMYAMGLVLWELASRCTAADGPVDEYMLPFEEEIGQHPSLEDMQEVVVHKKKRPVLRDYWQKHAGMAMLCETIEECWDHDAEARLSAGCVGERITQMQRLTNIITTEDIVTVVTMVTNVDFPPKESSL

[4] = biological target: Cyclin-dependent kinase 5 (Homo sapiens) (UniProt Q00535); assay: Inhibition of CDK5 (unknown origin) assessed as residual activity at 1000 nM by KINOMEscan analysis relative to control
[5] = biological target: T1, Cyclin-dependent kinase-like 2 (Homo sapiens) (UniProt Q92772); assay: Inhibition of CDKL2 (unknown origin) assessed as residual activity at 1000 nM by KINOMEscan analysis relative to control
T1 sequence (whole entry): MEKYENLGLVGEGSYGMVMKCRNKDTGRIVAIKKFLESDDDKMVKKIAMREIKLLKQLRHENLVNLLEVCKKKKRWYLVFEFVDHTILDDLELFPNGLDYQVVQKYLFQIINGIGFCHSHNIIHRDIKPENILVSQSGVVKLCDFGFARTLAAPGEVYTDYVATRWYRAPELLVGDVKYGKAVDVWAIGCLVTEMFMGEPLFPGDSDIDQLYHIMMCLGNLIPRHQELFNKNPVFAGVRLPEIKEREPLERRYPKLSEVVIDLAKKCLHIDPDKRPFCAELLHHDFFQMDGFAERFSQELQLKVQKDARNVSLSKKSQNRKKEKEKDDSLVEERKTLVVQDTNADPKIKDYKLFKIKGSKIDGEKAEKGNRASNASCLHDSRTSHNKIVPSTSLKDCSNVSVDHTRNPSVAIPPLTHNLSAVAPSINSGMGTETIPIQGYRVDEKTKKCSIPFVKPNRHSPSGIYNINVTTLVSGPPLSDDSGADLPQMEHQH

[6] = biological target: T2, Discoidin domain-containing receptor 2 (Homo sapiens) (UniProt Q16832); assay: Inhibition of DDR2 (unknown origin) assessed as residual activity at 1000 nM by KINOMEscan analysis relative to control
T2 sequence (whole entry): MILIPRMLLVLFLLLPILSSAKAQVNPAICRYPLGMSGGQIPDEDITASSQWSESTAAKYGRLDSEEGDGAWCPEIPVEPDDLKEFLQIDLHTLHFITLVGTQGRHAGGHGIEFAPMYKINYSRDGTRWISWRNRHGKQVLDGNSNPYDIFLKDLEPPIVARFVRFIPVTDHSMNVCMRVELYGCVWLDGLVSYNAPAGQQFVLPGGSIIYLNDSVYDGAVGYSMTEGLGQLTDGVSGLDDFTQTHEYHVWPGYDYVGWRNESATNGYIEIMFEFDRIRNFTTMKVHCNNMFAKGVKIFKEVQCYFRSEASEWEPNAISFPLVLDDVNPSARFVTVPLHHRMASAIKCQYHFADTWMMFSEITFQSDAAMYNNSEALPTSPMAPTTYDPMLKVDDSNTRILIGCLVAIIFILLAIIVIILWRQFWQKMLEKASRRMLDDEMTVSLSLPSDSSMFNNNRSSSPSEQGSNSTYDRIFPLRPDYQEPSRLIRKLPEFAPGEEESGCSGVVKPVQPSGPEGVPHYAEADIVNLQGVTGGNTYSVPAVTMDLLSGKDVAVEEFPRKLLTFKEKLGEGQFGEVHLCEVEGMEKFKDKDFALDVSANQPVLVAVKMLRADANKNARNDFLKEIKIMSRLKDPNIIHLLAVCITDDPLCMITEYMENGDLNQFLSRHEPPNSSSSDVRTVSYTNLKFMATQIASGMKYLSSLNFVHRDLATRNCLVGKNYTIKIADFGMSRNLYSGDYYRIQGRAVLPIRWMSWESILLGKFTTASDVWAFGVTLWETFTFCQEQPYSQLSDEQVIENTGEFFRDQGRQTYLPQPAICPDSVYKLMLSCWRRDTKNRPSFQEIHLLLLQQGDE

[7] = biological target: Serine/threonine-protein kinase/endoribonuclease IRE1 (Homo sapiens) (UniProt O75460); assay: Inhibition of ERN1 (unknown origin) assessed as residual activity at 1000 nM by KINOMEscan analysis relative to control
Sequence of Serine/threonine-protein kinase/endoribonuclease IRE1 (Homo sapiens) (O75460 19-977 limits assumed): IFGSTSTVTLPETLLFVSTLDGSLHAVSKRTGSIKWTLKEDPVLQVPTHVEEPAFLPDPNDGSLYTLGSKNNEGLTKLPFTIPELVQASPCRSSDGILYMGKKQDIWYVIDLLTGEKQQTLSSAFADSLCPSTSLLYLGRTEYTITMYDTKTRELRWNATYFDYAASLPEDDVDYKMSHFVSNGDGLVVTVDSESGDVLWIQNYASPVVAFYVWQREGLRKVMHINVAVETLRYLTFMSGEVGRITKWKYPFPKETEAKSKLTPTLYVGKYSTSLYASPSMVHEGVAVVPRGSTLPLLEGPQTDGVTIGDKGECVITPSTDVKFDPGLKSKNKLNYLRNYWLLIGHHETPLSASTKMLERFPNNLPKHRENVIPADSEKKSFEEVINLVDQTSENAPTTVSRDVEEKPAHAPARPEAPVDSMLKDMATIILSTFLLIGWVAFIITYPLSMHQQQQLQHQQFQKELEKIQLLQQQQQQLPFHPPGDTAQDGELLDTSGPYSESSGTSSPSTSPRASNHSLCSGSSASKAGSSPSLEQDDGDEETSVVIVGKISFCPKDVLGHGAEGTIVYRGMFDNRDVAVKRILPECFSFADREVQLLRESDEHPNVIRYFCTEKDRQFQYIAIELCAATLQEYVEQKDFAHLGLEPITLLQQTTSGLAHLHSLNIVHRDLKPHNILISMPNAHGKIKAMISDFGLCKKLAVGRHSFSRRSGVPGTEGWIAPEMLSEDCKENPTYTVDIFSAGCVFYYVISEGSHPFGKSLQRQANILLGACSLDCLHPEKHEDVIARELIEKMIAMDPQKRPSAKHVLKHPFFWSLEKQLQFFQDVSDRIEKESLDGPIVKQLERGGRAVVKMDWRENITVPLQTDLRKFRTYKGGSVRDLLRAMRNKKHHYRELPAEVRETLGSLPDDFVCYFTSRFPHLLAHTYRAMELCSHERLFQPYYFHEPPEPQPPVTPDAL

[8] = biological target: Mast/stem cell growth factor receptor Kit (Homo sapiens) (UniProt P10721); assay: Inhibition of KIT (unknown origin) assessed as residual activity at 1000 nM by KINOMEscan analysis relative to control
[9] = biological target: Phosphatidylinositol 4-phosphate 3-kinase C2 domain-containing subunit beta (Homo sapiens) (UniProt O00750); assay: Inhibition of PIK3C2B (unknown origin) assessed as residual activity at 1000 nM by KINOMEscan analysis relative to control
Sequence of Phosphatidylinositol 4-phosphate 3-kinase C2 domain-containing subunit beta (Homo sapiens) (O00750 whole entry, the tested form may be a part): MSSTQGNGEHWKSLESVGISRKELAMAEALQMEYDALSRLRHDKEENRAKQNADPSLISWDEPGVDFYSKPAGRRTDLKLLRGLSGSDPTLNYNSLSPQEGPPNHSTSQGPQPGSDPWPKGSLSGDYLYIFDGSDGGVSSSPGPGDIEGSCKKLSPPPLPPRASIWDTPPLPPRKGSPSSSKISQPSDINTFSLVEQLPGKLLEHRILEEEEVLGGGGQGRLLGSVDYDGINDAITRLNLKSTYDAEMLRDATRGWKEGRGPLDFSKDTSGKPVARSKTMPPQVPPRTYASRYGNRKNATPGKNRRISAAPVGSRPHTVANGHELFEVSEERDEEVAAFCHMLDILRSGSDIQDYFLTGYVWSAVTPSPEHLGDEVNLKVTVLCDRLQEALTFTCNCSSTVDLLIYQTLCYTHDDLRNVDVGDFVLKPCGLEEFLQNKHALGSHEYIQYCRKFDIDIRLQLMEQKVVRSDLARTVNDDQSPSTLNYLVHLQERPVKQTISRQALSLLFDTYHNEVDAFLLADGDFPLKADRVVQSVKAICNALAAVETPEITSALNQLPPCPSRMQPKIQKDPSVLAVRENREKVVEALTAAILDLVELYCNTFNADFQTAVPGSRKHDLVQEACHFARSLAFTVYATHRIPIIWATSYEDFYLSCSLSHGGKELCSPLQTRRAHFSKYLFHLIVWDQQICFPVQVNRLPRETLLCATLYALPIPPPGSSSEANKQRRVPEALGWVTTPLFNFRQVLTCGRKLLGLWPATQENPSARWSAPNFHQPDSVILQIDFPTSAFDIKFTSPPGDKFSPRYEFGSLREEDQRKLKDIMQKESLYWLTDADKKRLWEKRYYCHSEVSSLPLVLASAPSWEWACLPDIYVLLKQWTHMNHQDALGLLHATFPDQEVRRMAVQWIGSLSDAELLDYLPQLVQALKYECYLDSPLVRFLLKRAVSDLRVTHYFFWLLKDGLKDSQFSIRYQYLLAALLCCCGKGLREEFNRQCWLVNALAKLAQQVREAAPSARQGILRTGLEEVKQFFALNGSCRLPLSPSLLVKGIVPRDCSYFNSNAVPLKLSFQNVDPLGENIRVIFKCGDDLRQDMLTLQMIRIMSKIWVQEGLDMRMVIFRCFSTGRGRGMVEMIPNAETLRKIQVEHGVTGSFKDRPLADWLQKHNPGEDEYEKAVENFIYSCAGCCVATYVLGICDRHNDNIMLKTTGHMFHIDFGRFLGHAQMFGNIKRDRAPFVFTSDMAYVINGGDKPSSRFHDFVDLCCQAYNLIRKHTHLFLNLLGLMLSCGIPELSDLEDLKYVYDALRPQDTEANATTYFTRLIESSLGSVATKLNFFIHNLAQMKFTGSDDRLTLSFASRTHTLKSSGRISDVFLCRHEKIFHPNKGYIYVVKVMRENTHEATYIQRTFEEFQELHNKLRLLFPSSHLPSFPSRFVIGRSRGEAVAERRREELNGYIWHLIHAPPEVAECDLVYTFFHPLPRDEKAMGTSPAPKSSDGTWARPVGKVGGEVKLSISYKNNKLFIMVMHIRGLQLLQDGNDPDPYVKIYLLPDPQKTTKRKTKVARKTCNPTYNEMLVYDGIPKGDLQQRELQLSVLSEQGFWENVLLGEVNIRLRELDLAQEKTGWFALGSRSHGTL

[10] = biological target: T3, Protein kinase C epsilon type (Homo sapiens) (UniProt Q02156); assay: Inhibition of PRKCE (unknown origin) assessed as residual activity at 1000 nM by KINOMEscan analysis relative to control
T3 sequence (whole entry): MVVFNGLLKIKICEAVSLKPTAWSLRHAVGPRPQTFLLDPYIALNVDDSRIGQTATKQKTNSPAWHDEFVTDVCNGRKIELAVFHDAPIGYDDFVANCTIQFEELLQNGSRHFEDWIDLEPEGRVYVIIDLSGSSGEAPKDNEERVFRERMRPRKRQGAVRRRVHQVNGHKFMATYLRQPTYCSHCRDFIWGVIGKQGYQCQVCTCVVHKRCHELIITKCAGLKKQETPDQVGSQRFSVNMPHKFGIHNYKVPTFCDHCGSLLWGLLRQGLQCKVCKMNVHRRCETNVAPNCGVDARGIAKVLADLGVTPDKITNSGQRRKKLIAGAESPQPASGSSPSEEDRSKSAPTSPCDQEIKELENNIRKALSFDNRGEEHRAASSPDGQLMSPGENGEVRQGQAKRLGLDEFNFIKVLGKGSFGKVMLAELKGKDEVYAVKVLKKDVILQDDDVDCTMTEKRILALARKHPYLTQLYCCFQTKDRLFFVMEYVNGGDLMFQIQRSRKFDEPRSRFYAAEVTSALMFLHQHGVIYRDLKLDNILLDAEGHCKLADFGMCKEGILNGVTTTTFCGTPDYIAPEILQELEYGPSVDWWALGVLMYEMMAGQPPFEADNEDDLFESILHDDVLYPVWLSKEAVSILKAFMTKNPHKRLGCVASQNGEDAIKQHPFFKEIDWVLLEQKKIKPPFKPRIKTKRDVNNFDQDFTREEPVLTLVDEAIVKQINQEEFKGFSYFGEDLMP

[11] = biological target: Dual specificity testis-specific protein kinase 1 (Homo sapiens) (UniProt Q15569); assay: Inhibition of TESK1 (unknown origin) assessed as residual activity at 1000 nM by KINOMEscan analysis relative to control
Sequence of Dual specificity testis-specific protein kinase 1 (Homo sapiens) (Q15569 whole entry, looked up): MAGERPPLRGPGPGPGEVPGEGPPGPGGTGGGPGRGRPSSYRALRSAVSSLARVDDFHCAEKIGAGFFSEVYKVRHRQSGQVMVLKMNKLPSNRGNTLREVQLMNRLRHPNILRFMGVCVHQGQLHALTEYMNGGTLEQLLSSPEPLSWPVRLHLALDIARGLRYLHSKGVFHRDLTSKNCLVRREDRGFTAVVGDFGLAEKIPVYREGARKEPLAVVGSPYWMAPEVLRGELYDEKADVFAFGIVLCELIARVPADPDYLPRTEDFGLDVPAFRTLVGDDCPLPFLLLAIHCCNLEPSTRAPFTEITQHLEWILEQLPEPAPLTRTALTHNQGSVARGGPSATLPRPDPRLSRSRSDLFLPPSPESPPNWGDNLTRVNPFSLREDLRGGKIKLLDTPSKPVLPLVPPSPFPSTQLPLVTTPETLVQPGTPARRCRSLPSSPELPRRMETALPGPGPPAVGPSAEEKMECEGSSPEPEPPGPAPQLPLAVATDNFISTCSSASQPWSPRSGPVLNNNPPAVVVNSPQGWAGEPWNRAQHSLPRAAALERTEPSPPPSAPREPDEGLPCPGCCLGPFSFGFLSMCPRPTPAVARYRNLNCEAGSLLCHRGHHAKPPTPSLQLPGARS

Row | SMILES | Activity [1] | Activity [2] | Activity [3] | Activity [4] | Activity [5] | Activity [6] | Activity [7] | Activity [8] | Activity [9] | Activity [10] | Activity [11]
1 | COc1cc2nc(C)nc(N[C@H](C)c3cccc(-c4cn[nH]c4)c3)c2cc1OC | 99% | 73% | 90% | 94% | 81% | 97% | 94% | 99% | 90% | 80% | 100%
2 | COc1cc2ncnc(N[C@H](C)c3cccc4ccccc34)c2cc1OC | 96% | 100% | 100% | 100% | 97% | 67% | 92% | 100% | 89% | 95% | 96%
